The values that follow come from ChEMBL document CHEMBL1201862, “PubChem BioAssay data set” (2004).

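Cells were grown in 96-well plates and exposed to each compound for 48 hours at five concentrations; endpoints were interpolated linearly between bracketing concentrations, or set to the highest concentration if not reached. Here, GI50 denotes the concentration required for 50% inhibition of growth.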 Active and inactive are the calls of the source. No stated cut-off is given here; in the data, active = GI50 up to about 1.1 µM and inactive = higher.

Common to all, as to assay: NCI-60 cell line screen, 48 h
For experiment [1], the system named is Hs-578T.
Experiment [2] deals with SF-295.
Experiment [3] has as its system NCI-H522.
Experiment [4] has as its system ACHN.
Experiment [5] relates to SK-MEL-5.
For experiment [6], the system named is MDA-N.
Experiment [7] concerns SF-268.
The subject of experiment [8] is SW-620.
Experiment [9] relates to EKVX.
Experiment [10] has as its system SK-OV-3.
The test system of experiment [11] is M14.
The test system of experiment [12] is CCRF-CEM.
Experiment [13] concerns MDA-MB-231.
The test system of experiment [14] is SK-MEL-2.
Experiment [15] deals with 786-0.
The subject of experiment [16] is RPMI-8226.
Experiment [17] has as its system K562.
Experiment [18] relates to LOX IMVI.
Experiment [19] deals with SR.

On to `CC(=O)N1c2cc(/N=N/N(C)C)ccc2NC(=O)CC1C` (stereo not given), for which the GI50 in experiment [1], in experiment [2], in [3], in [4], in experiment [5] and in experiment [6] was > 100 µM (inactive) each time. Further, the GI50 in [7], in experiment [8], in experiment [9], in experiment [10], in experiment [11] and in experiment [12] was > 100 µM (inactive) throughout. Moreover, the GI50 in experiment [13], in experiment [14], in [15], in experiment [16] and in experiment [17] was > 100 µM (inactive) each time.

On to `CCOC(=O)c1cc2cc(N(C(C)=O)C(C)=O)ccc2s1`, for which the GI50 in experiment [1] was 16.9 µM (inactive); in experiment [2], 30.8 µM (inactive); in [3] it was 16.8 µM (inactive); in [4], 25.2 µM (inactive); in experiment [5] it was 20.7 µM (inactive); in [6], 29.2 µM (inactive). Moreover, the GI50 is 23.2 µM (inactive) in [7]; 36.2 µM (inactive) in experiment [8]; 20.6 µM (inactive) in experiment [9]; 33.5 µM (inactive) in experiment [18]; 30.4 µM (inactive) in experiment [10]; 25.1 µM (inactive) in experiment [11]. Besides, the GI50 in experiment [12] was 21.9 µM (inactive); in [13] it was 23 µM (inactive); in experiment [14] it was 22.5 µM (inactive); in experiment [15] it was 27.2 µM (inactive); in [16] it was 19.6 µM (inactive); in experiment [17], 24.7 µM (inactive).

Turning to `O=c1cc(N2CCCC2)[nH]c(=O)n1-c1ccc(F)cc1`, the GI50 in experiment [1], in [2], in experiment [3], in experiment [4], in [6] and in experiment [7] was > 100 µM (inactive) in each case. Further, the GI50 in experiment [8], in experiment [9], in [18], in [10], in experiment [11] and in experiment [12] was > 100 µM (inactive) each time. In addition, the GI50 in experiment [13], in experiment [14], in experiment [15], in [16] and in experiment [17] was > 100 µM (inactive) each time.

As to `CN(CCCN(C)CCc1ccc(Cl)c(Cl)c1)CCCN1CCCC1`, the GI50 is 1.48 µM (inactive) in experiment [1]; 2.28 µM (inactive) in experiment [2]; 1.56 µM (inactive) in [3]; 7.11 µM (inactive) in experiment [4]; 2.32 µM (inactive) in experiment [5]; 1.31 µM (inactive) in [6]. Moreover, the GI50 in [7] is 2.12 µM (inactive); in experiment [8], 2.26 µM (inactive); in experiment [9], 3.35 µM (inactive); in [18], 1.52 µM (inactive); in experiment [10], 10.2 µM (inactive); in experiment [11], 1.52 µM (inactive). Besides, the GI50 was 0.458 µM (active) in experiment [12]; 1.33 µM (inactive) in experiment [13]; 1.83 µM (inactive) in experiment [14]; 1.26 µM (inactive) in [15]; 0.228 µM (active) in experiment [16]; 0.532 µM (active) in experiment [17].

With `CC(C)(C)n1c(=O)[nH]c(=O)n1C(C)(C)C`, the GI50 in [1], in experiment [2], in experiment [4], in experiment [5], in experiment [6] and in experiment [19] was > 100 µM (inactive) throughout. Also, the GI50 in experiment [8], in experiment [9], in experiment [18], in experiment [10], in experiment [11] and in experiment [12] was > 100 µM (inactive) each time. The GI50 in experiment [13], in experiment [14], in experiment [15] and in experiment [17] was > 100 µM (inactive) throughout.

For `S=C1SC(c2ccc(Cl)cc2)(c2ccc(Cl)cc2)c2ccccc21`, the GI50 in experiment [1] was > 100 µM (inactive); in experiment [2], 53.7 µM (inactive); in experiment [3], 91.8 µM (inactive); in experiment [4], > 100 µM (inactive); in experiment [5], 64 µM (inactive); in experiment [6] it was 62.2 µM (inactive). Besides, the GI50 was 20.4 µM (inactive) in experiment [19]; 95.1 µM (inactive) in experiment [7]; 68.7 µM (inactive) in [8]; 91.4 µM (inactive) in experiment [9]; 25.7 µM (inactive) in experiment [18]; > 100 µM (inactive) in experiment [10]. Moreover, the GI50 in experiment [11] was 79.4 µM (inactive); in experiment [12], 43.7 µM (inactive); in experiment [13] it was > 100 µM (inactive); in experiment [15], > 100 µM (inactive); in experiment [17] it was 64.9 µM (inactive).

For the molecule `c1cncc(CC2(c3cc4ccccc4[nH]3)OCCO2)c1`, the GI50 in experiment [1] is 96.8 µM (inactive); in experiment [2], > 100 µM (inactive); in [3], > 100 µM (inactive); in experiment [4], > 100 µM (inactive); in [5], 61.8 µM (inactive); in experiment [6], > 100 µM (inactive). Besides, the GI50 in [19] is 85.5 µM (inactive); in [7], > 100 µM (inactive); in [8], > 100 µM (inactive); in [18], > 100 µM (inactive); in [10], > 100 µM (inactive); in experiment [12] it was > 100 µM (inactive). Also, the GI50 in experiment [13], in experiment [14] and in experiment [15] was > 100 µM (inactive) each time.

As to `COc1cc(/C=C2\C(=O)N(c3cccc(Cl)c3)C(c3ccccc3)S2(=O)=O)cc(OC)c1OC` (stereo not given), the GI50 in [1] is > 100 µM (inactive); in experiment [2], 36.4 µM (inactive); in [3], 17.8 µM (inactive); in experiment [4], 76.7 µM (inactive); in experiment [5] it was 39.2 µM (inactive); in experiment [6] it was 20.8 µM (inactive). Further, the GI50 in [7] was 55.8 µM (inactive); in [8] it was 59.7 µM (inactive); in experiment [9], > 100 µM (inactive); in experiment [18], 22.2 µM (inactive); in experiment [10] it was 58.1 µM (inactive); in [11] it was 31.3 µM (inactive). For the same molecule, the GI50 in experiment [12] is 18.2 µM (inactive); in [13], > 100 µM (inactive); in [14], > 100 µM (inactive); in experiment [15], 42.2 µM (inactive); in [16], 23.2 µM (inactive); in [17] it was 22.3 µM (inactive).

With `CCOC(=O)c1c[nH]c(C(=O)OCC)c1-c1cccn1-c1ccccc1`, the GI50 was 9.64 µM (inactive) in [1]; 19.3 µM (inactive) in [2]; 13 µM (inactive) in experiment [3]; 26.2 µM (inactive) in experiment [4]; 14.1 µM (inactive) in [5]; 31.7 µM (inactive) in [6]. For the same molecule, the GI50 in experiment [7] was 25.5 µM (inactive); in experiment [8], 35.2 µM (inactive); in [9] it was 24.8 µM (inactive); in [18], 16.9 µM (inactive); in experiment [10], 28.4 µM (inactive); in [11] it was 20.2 µM (inactive). The GI50 in experiment [12] was 17.9 µM (inactive); in experiment [13] it was 28.6 µM (inactive); in experiment [14], 14.5 µM (inactive); in experiment [15], 22.8 µM (inactive); in experiment [16], 14.2 µM (inactive); in experiment [17] it was 15.4 µM (inactive).

For `NS(=O)(=O)c1ccc(NC(=S)N/C=C2\C(=O)Oc3ccccc3C2=O)cc1`, the GI50 in experiment [1] was 17.5 µM (inactive); in experiment [2], 32 µM (inactive); in experiment [3] it was 23.2 µM (inactive); in experiment [4] it was 18.3 µM (inactive); in experiment [5], 26.1 µM (inactive); in experiment [6], 34.4 µM (inactive). Further, the GI50 was 38.5 µM (inactive) in experiment [7]; 40.1 µM (inactive) in experiment [8]; 34.1 µM (inactive) in experiment [9]; 33.6 µM (inactive) in experiment [18]; 26.4 µM (inactive) in experiment [10]; 21.3 µM (inactive) in experiment [11]. Moreover, the GI50 in experiment [12] was 37.9 µM (inactive); in experiment [13], 16 µM (inactive); in [14], 15.3 µM (inactive); in experiment [15], 40 µM (inactive); in experiment [16], 30.4 µM (inactive); in experiment [17], 35.1 µM (inactive).

Take `C[N+](C)(CCNc1ccc(NCC[N+](C)(C)Cc2ccc([N+](=O)[O-])cc2)c2c1C(=O)c1c(O)ccc(O)c1C2=O)Cc1ccc([N+](=O)[O-])cc1`: the GI50 was > 50 µM (inactive) in [1]; 16.7 µM (inactive) in experiment [2]; > 50 µM (inactive) in [3]; > 50 µM (inactive) in experiment [4]; 15 µM (inactive) in experiment [5]; 46.7 µM (inactive) in experiment [6]. Moreover, the GI50 in experiment [7] is > 50 µM (inactive); in experiment [8], > 50 µM (inactive); in experiment [9], > 50 µM (inactive); in experiment [18], 4.65 µM (inactive); in experiment [10], > 50 µM (inactive); in [11], > 50 µM (inactive). Moreover, the GI50 in [12] is > 50 µM (inactive); in experiment [13], 2.65 µM (inactive); in experiment [14], > 50 µM (inactive); in [15], 8.41 µM (inactive); in [16] it was > 50 µM (inactive); in experiment [17], > 5 µM (inactive).
